Values quoted from earlier work as cited in US20050272717A1, “Treatment of aromatase inhibitor therapy-related osteoporosis” (priority 2004, published 2005).

Columns and labels:
bone = details: preclinical studies

Cc1c(-c2ccc(O)cc2)n(Cc2ccc(OCCN3CCCCCC3)cc2)c2ccc(O)cc12 [bazedoxifene, 1-[4-(2-azepan-1-yl-ethoxy)-benzyl]-2-(4-hydroxy-phenyl)-3-methyl-1H-indol-5-ol]
estradiol-stimulated proliferation of breast cancer cells (breast cancer cells): inhibits
compressive bone strength (bone): improved
histomorphometric profile (bone; compared with raloxifene): superior to that of raloxifene
